Data from ChEMBL document CHEMBL6071160, “Identification of a novel 10-hydroxyevodiamine prodrug as a potent topoisomerase inhibitor with improved aqueous solubility for treatment of hepatocellular carcinoma” (Eur J Med Chem, 2024).
Activity calls are given as the source filed them. No cut-off for these calls is given here.

Experiments:
SK-HEP1 [1] = test: Induction of apoptosis in human SK-HEP1 cells assessed as necrotic cells at 20 nM measured after 24 hrs by Annexin-V-FITC/PI analysis (reference value: 0.70%); assay type: functional
SK-HEP1 [2] = test: Induction of apoptosis in human SK-HEP1 cells assessed as viable cells at 80 nM measured after 24 hrs by Annexin-V-FITC/PI analysis (reference value: 97.20%); assay type: functional; settings: read-out: Activity
Huh-7 [3] = test: Induction of apoptosis in human Huh-7 cells assessed as viable cells at 40 nM measured after 24 hrs by Annexin-V-FITC/PI analysis (reference value: 97.46%); assay type: functional; settings: read-out: Activity
Huh-7 [4] = test: Induction of apoptosis in human Huh-7 cells assessed as necrotic cells at 20 nM measured after 24 hrs by Annexin-V-FITC/PI analysis (reference value: 0.27%); assay type: functional
[5] = Toxicity in BALB/c nude mouse subcutaneously injected with human Huh-7 cells assessed as animal death at 10 to 20 mg/kg, ip administered once daily measured after 14 days; assay type: organism-based; settings: in vivo, 336 h, dose 10-20 mg/kg, time 14 day
Huh-7 [6] = test: Inhibition of cell migration in human Huh-7 cells at 40 nM measured for 24 hrs by scratch wound healing assay; assay type: functional, cell-based
HepG2 = test: Antiproliferative activity against human HepG2 cells assessed as inhibition of cell proliferation incubated for 72 hrs by MTT assay; assay type: functional, cell-based; settings: HepG2, 72 h
SK-HEP1 [7] = test: Induction of apoptosis in human SK-HEP1 cells assessed as necrotic cells at 80 nM measured after 24 hrs by Annexin-V-FITC/PI analysis (reference value: 0.70%); assay type: functional
Huh-7 [8] = test: Induction of apoptosis in human Huh-7 cells assessed as ROS generation by measuring DCFH2-DA stained cells at 80 nM measured after 24 hrs […] (reference value: 0.45%); assay type: functional
[9] = Chemical stability of compound at pH 4.6 assessed as residual rate measured after 2 days; assay type: physicochemical; settings: buffer, time 2 day, read-out: Stability
[10] = Toxicity in BALB/c nude mouse subcutaneously injected with human Huh-7 cells assessed as change in platelet level at 10 mg/kg, ip administered once daily measured after 14 days; assay type: organism-based; settings: in vivo, 336 h, time 14 day
[11] = Toxicity in BALB/c nude mouse subcutaneously injected with human Huh-7 cells assessed as changes in heart tissue at 10 mg/kg, ip administered once daily measured after 14 days by H and E staining based assay; assay type: organism-based; settings: in vivo, 336 h, time 14 day
[12] = AUC (0 to t) in Sprague-Dawley rat at 10 mg/kg, ip measured upto 24 hrs by LC-MS/MS analysis; assay type: ADME, organism-based; settings: in vivo
Huh-7 [13] = test: Inhibition of cell invasion in human Huh-7 cells assessed as decrease in number of cells migration into lower compartment at 10 nM measured after 24 hrs by transwell assay; assay type: functional, cell-based
[14] = Toxicity in BALB/c nude mouse subcutaneously injected with human Huh-7 cells assessed as change in body weight at 40 mg/kg, ip administered once other day measured after 14 days; assay type: organism-based; settings: in vivo, 336 h, time 14 day
NCI-H1703 = test: Antiproliferative activity against human NCI-H1703 cells assessed as decrease in EdU positive cells measured after 24 hrs by Edu incorporation based fluorescence microscopic analysis; assay type: functional, cell-based; settings: dose 10-40 nM
Huh-7 [15] = test: Antiproliferative activity against human Huh-7 cells assessed as inhibition of cell proliferation incubated for 72 hrs by MTT assay; assay type: functional, cell-based; settings: Huh-7, 72 h
Huh-7 [16] = test: Induction of cell cycle arrest in human Huh-7 cells assessed as accumulation of cells at G1 phase 20 nM measured after 24 hrs by flow cytometric assay (reference value: 63.01%); assay type: functional
[17] = Chemical stability of compound at pH 7.4 assessed as residual rate measured after 2 days; assay type: physicochemical; settings: buffer, time 2 day, read-out: Stability
[18] = Toxicity in BALB/c nude mouse subcutaneously injected with human Huh-7 cells assessed as changes in liver tissue at 10 mg/kg, ip administered once daily measured after 14 days by H and E staining based assay; assay type: organism-based; settings: in vivo, 336 h, time 14 day
Huh-7 [19] = test: Induction of cell cycle arrest in human Huh-7 cells assessed as accumulation of cells at G1 phase 80 nM measured after 24 hrs by flow cytometric assay (reference value: 63.01%); assay type: functional
[20] = Aqueous solubility of the compound […] measured after 72 hrs in shaking by HPLC analysis; assay type: physicochemical
SK-HEP1 [21] = test: Antiproliferative activity against human SK-HEP1 cells assessed as inhibition of cell proliferation incubated for 72 hrs by MTT assay; assay type: functional, cell-based; settings: SK-HEP1, 72 h
SK-HEP1 [22] = test: Induction of apoptosis in human SK-HEP1 cells assessed as late apoptotic cells at 40 nM measured after 24 hrs by Annexin-V-FITC/PI analysis (reference value: 0.64%); assay type: functional
Huh-7 [23] = test: Induction of apoptosis in human Huh-7 cells assessed as late apoptotic cells at 80 nM measured after 24 hrs by Annexin-V-FITC/PI analysis (reference value: 1.23%); assay type: functional
Huh-7 [24] = test: Inhibition of cell migration in human Huh-7 cells at 20 nM measured for 24 hrs by scratch wound healing assay; assay type: functional, cell-based
SK-HEP1 [25] = test: Induction of cell cycle arrest in human SK-HEP1 cells assessed as accumulation of cells at G1 phase 80 nM measured after 24 hrs by flow cytometric assay (reference value: 47.55%); assay type: functional
SK-HEP1 [26] = test: Induction of apoptosis in human SK-HEP1 cells assessed as loss of mitochondrial membrane potential by measuring JC-1 stained cells at 20 nM measured after 24 hrs by JC-1 staining based flow cytometry (reference value: 0.49%); assay type: functional
[27] = Toxicity in BALB/c nude mouse subcutaneously injected with human Huh-7 cells assessed as change in body weight at 40 mg/kg, ip administered once daily measured after 14 days; assay type: organism-based; settings: in vivo, 336 h, time 14 day
Huh-7 [28] = test: Induction of apoptosis in human Huh-7 cells assessed as ROS generation by measuring DCFH2-DA stained cells at 40 nM measured after 24 hrs […] (reference value: 0.45%); assay type: functional
SMMC-7721 = test: Antiproliferative activity against human SMMC-7721 cells assessed as inhibition of cell proliferation incubated for 72 hrs by MTT assay; assay type: functional, cell-based; settings: SMMC-7721, 72 h
Huh-7 [29] = test: Induction of cell cycle arrest in human Huh-7 cells assessed as accumulation of cells at G1 phase 40 nM measured after 24 hrs by flow cytometric assay (reference value: 63.01%); assay type: functional
[30] = Prodrug conversion in rat plasma assessed as half life by measuring parent 10-hydroxyevodiamine derivative release by HPLC analysis; assay type: ADME, cell-free
Huh-7 [31] = test: Induction of apoptosis in human Huh-7 cells assessed as loss of mitochondrial membrane potential by measuring JC-1 stained cells at 40 nM measured after 24 hrs by JC-1 staining based flow cytometry (reference value: 2.27%); assay type: functional
Huh-7 [32] = test: Induction of apoptosis in human Huh-7 cells assessed as loss of mitochondrial membrane potential by measuring JC-1 stained cells at 80 nM measured after 24 hrs by JC-1 staining based flow cytometry (reference value: 2.27%); assay type: functional
SK-HEP1 [33] = test: Induction of cell cycle arrest in human SK-HEP1 cells assessed as accumulation of cells at G1 phase 20 nM measured after 24 hrs by flow cytometric assay (reference value: 47.55%); assay type: functional

With `C[N+](C)(C)CCC(=O)Oc1ccc2[nH]c3c(c2c1)CCN1C(=O)c2cc(F)cc(F)c2N(c2cccc(F)c2)C31.[I-]` (stereo unspecified) the Activity (SK-HEP1 [1]) was 0.47%, the viability at 0.08 µM (SK-HEP1 [2]) was 64.7% and the viability at 0.04 µM (Huh-7 [3]) was 94.2%. The Activity (Huh-7 [4]) was 0.11%, the Activity [5] was “Non-Toxic” and the inhibition (Huh-7 [6]) was “Active”. The IC50 (HepG2) was 90 nM, the Activity (SK-HEP1 [7]) was 1.15% and the Activity (Huh-7 [8]) was 17.92%. The remaining at 48 h [9] was 63.1%, the Activity [10] was “Non-Toxic” and the Activity [11] was “Non-Toxic”. The AUC(0-t) at 24 h [12] was 1540 ng·h/mL, the inhibition (Huh-7 [13]) was “Active” and the Activity [14] was “Non-Toxic”. The Activity (NCI-H1703) was “Dose-Dependent Effect”, the IC50 (Huh-7 [15]) was 40 nM and the Activity (Huh-7 [16]) was 66.72%. The remaining at 48 h [17] was 43.9%, the Activity [18] was “Non-Toxic” and the Activity (Huh-7 [19]) was 6.79%. For the same molecule, the solubility thermodynamic at 72 h [20] was 967 µg/mL, the IC50 (SK-HEP1 [21]) was 30 nM and the Activity (SK-HEP1 [22]) was 1.31%. The Activity (Huh-7 [23]) was 11.64%, the inhibition (Huh-7 [24]) was “Active” and the Activity (SK-HEP1 [25]) was 13.31%. The Activity (SK-HEP1 [26]) was 0.78%, the Activity [27] was “Toxic” and the Activity (Huh-7 [28]) was 1.09%. The IC50 (SMMC-7721) was 90 nM, the Activity (Huh-7 [29]) was 66.98% and the t1/2 [30] was 30 min. For the same molecule, the Activity (Huh-7 [31]) was 3.05%, the Activity (Huh-7 [32]) was 12.52% and the Activity (SK-HEP1 [33]) was 47.61%.
